Source: patent US6464978B1, “Vaccination and methods against multiple sclerosis resulting from pathogenic responses by specific T cell populations” (The Immune Response Corporation, priority 1989, dated 2002)
“And” between values parts separate entries of the source, which are not always exact repeats. Equal entries are not always repeated. “Also recorded” adds a separate entry of the source.

Columns and labels:
[1] = test system: EAE; assay: Histologic examination of the CNS of vaccinated, MBP-challenged rats; assay type: in vivo; conditions: Lewis rats, 50 μg peptide in CFA, MBP challenge
From the text: Disease was characterized by severe paralysis and wasting, persisted for 4 to 6 days and spontaneously remitted.
Even sub-clinical signs of disease were abrogated.

[2] = test system: EAE; assay: Vaccination against EAE in the Lewis rat model, daily clinical scoring after MBP challenge; assay type: in vivo, Lewis rats; parameters: key to EAE clinical score, Days After Challenge 18 / EAE clinical score, Days After Challenge 10 / EAE clinical score, Days After Challenge 11 / EAE clinical score, Days After Challenge 12 / EAE clinical score, Days After Challenge 13 / EAE clinical score, Days After Challenge 14 / EAE clinical score, Days After Challenge 15 / EAE clinical score, Days After Challenge 16 / EAE clinical score, Days After Challenge 17 / EAE clinical score, Days After Challenge 19 / EAE clinical score, Days After Challenge 20: —: no signs; 1: limp tail; 2: hind leg weakness; 3: hind leg paralysis; conditions: for EAE clinical score, Days After Challenge 10: day 10; for EAE clinical score, Days After Challenge 11: day 11; for EAE clinical score, Days After Challenge 12: day 12; for EAE clinical score, Days After Challenge 13: day 13; for EAE clinical score, Days After Challenge 14: day 14; for EAE clinical score, Days After Challenge 15: day 15; for EAE clinical score, Days After Challenge 16: day 16; for EAE clinical score, Days After Challenge 17: day 17; for EAE clinical score, Days After Challenge 18: day 18
Description: Female Lewis rats, (Charles River Laboratories, Raleigh-Durham, N.C.) were immunized in each hind foot pad with 50 μg of guinea pig myelin basic protein emulsified in complete Freund's adjuvant. The first signs of disease were typically observed 9-11 days post-immunization. Disease severity is scored on a three point scale as follows: 1=limp tail; 2=hind leg weakness; 3=hind leg paralysis. Following a disease course of approximately four to six days, most rats spontaneously recovered and were refractory to subsequent EAE induction.
[…]. KLH-VDJ conjugate was administered at a dose equivalent to 10 μg of KLH per rat. Twenty-nine days later each rat was challenged with 50 μg of guinea pig myelin basic protein in complete Freund's adjuvant in the front footpads. Animals were monitored daily beginning at day 9 for clinical, signs of EAE and were scored as described above.
The preparation, administration and evaluation of these vaccines were conducted as described in Examples I through III with the following exceptions: 50 μg of the individual VDJ peptides were incorporated into vaccine formulations containing CFA; neither vaccinations in IFA nor vaccinations with peptides conjugated to KLH were conducted. Control animals were untreated prior to MBP challenge as in Example III or were vaccinated with emulsions of PBS and CFA to assess the protective effect of adjuvant alone. […]

[3] = Lewis rats, 50 μg peptide in CFA, MBP challenge
[4] = one rat per line, 50 μg rat VDJ peptide in CFA
[5] = one rat per line, 50 μg Vβ8 peptide in CFA
[6] = one rat per line, 50 μg JαTA39 peptide in CFA
[7] = one rat per line, 5 μg VDJ or KLH-VDJ equivalent to 10 μg KLH, in IFA or CFA, hind footpads, MBP challenge 29 days later

| Sequence | protection against clinical EAE (animals protected) [2, 3] | EAE clinical score, Days After Challenge 10 [2, 4] | EAE clinical score, Days After Challenge 11 [2, 4] | EAE clinical score, Days After Challenge 12 [2, 4] | EAE clinical score, Days After Challenge 13 [2, 4] | EAE clinical score, Days After Challenge 14 [2, 4] | EAE clinical score, Days After Challenge 15 [2, 4] | EAE clinical score, Days After Challenge 16 [2, 4] | EAE clinical score, Days After Challenge 17 [2, 4] | EAE clinical score, Days After Challenge 18 [2, 4] | onset, severity and duration of EAE [2, 3] | also measured |
| --- | --- | --- | --- | --- | --- | --- | --- | --- | --- | --- | --- | --- |
| A S S D - S S N T E (ASSDSSNTE) [IR9b] | complete protection in all four animals | — | — | — | — | — | — | — | — | — |  | histologic lesions / T cell infiltration of the CNS [1]: no histologic lesions characteristic of disease were found in any of the four animals |
| DMGHGLRLIHYSYDVNSTEK [IR7] | One animal was completely protected |  |  |  |  |  |  |  |  |  | Delayed onset as well as decreased severity and duration of disease was observed in one animal | EAE clinical score, Days After Challenge 10 [2, 5]: —; EAE clinical score, Days After Challenge 11 [2, 5]: —; EAE clinical score, Days After Challenge 12 [2, 5]: 1 and — (2×); EAE clinical score, Days After Challenge 13 [2, 5]: 2 and — (2×); EAE clinical score, Days After Challenge 14 [2, 5]: 3 and 1 and —; EAE clinical score, Days After Challenge 15 [2, 5]: 3 and 1 and —; EAE clinical score, Days After Challenge 16 [2, 5]: 3 and — (2×); EAE clinical score, Days After Challenge 17 [2, 5]: —; EAE clinical score, Days After Challenge 18 [2, 5]: — |
| RFGAGTRLTVK [IR5] | Two of three animals were totally protected |  |  |  |  |  |  |  |  |  | in the third, disease onset was markedly delayed | histologic lesions / T cell infiltration of the CNS [1]: the two animals which were completely protected showed no histologic evidence of T cell infiltration of the CNS; effectiveness of vaccination compared with other peptides [2, 3]: more effective than those observed with the mouse VDJ peptide or the Vβ8 peptide; EAE clinical score, Days After Challenge 10 [2, 6]: —; EAE clinical score, Days After Challenge 11 [2, 6]: —; EAE clinical score, Days After Challenge 12 [2, 6]: —; EAE clinical score, Days After Challenge 13 [2, 6]: —; EAE clinical score, Days After Challenge 14 [2, 6]: —; EAE clinical score, Days After Challenge 15 [2, 6]: 2 and — (2×); EAE clinical score, Days After Challenge 16 [2, 6]: 1 and — (2×); EAE clinical score, Days After Challenge 17 [2, 6]: 1 and — (2×); EAE clinical score, Days After Challenge 18 [2, 6]: 1 and — (2×); EAE clinical score, Days After Challenge 19 ([2]; day 19, one rat per line, 50 μg JαTA39 peptide in CFA): 1 and — (2×); EAE clinical score, Days After Challenge 20 ([2]; day 20, one rat per line, 50 μg JαTA39 peptide in CFA): — |
| C A S S D - S G N T E V F F G K (CASSDSGNTEVFFGK) [IR2] |  | — | — | 1 and — (2×) | 3 and — (2×) | 3 and 2 and 1 | 3 and 2 and — | — (2×) and 3 | — (2×) and 3 | — | delays in onset were observed in some; also recorded: others showed both delayed onset as well as decreased severity and/or duration of disease |  |
| SGDAGGGYE [VDJ (IFA), free VDJ peptide in PBS emulsified with incomplete Freund's adjuvant] |  |  |  |  |  |  |  |  |  |  |  | EAE clinical score, Days After Challenge 10 [2, 7]: —; EAE clinical score, Days After Challenge 11 [2, 7]: —; EAE clinical score, Days After Challenge 12 [2, 7]: 2 and 1 and —; EAE clinical score, Days After Challenge 13 [2, 7]: 3; EAE clinical score, Days After Challenge 14 [2, 7]: 3; EAE clinical score, Days After Challenge 15 [2, 7]: 3; EAE clinical score, Days After Challenge 16 [2, 7]: — and 2 (2×); EAE clinical score, Days After Challenge 17 [2, 7]: —; EAE clinical score, Days After Challenge 18 [2, 7]: — |
| C A S S D - S S N T E V F F G K (CASSDSSNTEVFFGK) [IR1] |  | — | — | — | 2 and — and 1 | 1 | — and 3 and 1 | — (2×) and 1 | — | — | delays in onset were observed in some; also recorded: others showed both delayed onset as well as decreased severity and/or duration of disease |  |
| C A S S D - S G N - V L Y F G E G S R (CASSDSGNVLYFGEGSR) [IR3] |  | 1 and — (2×) | 3 and — (2×) | 3 and 2 and — | 3 (2×) and — | 2 and 3 and — | — | — | — | — | delays in onset were observed in some; also recorded: others showed both delayed onset as well as decreased severity and/or duration of disease |  |
| SGDAGGGYE [VDJ (CFA), free VDJ peptide in PBS emulsified with complete Freund's adjuvant] |  |  |  |  |  |  |  |  |  |  |  | EAE clinical score, Days After Challenge 10 [2, 7]: —; EAE clinical score, Days After Challenge 11 [2, 7]: —; EAE clinical score, Days After Challenge 12 [2, 7]: —; EAE clinical score, Days After Challenge 13 [2, 7]: 1 and — (2×); EAE clinical score, Days After Challenge 14 [2, 7]: 3 and 1 and —; EAE clinical score, Days After Challenge 15 [2, 7]: 3 and 1 and —; EAE clinical score, Days After Challenge 16 [2, 7]: 3 and 1 and —; EAE clinical score, Days After Challenge 17 [2, 7]: 2 and — (2×); EAE clinical score, Days After Challenge 18 [2, 7]: — |
